Source: patent publication US20240150315A1, “BETA-2 ADRENORECEPTOR MODULATORS AND METHODS OF USING SAME” (University of Maryland, Baltimore, priority 2022, published 2024)
Entries after “also recorded” stand apart in the source; their conditions may differ.

What was measured:
[1] = system: β2AR; test: cell surface ELISA of β2AR expression (receptor internalization) in HEK293 cells; format: cell-based, human; conditions: 15 min; for effect on ISO-induced loss of cell surface expression of wild-type or mutant β2AR: AMs 100 nM with ISO 100 nM
Method: ISO induced receptor internalization was assessed via cell surface ELISA as previously described. Briefly, HEK-293 cells expressing β2AR were plated on 24-well plates. Cells were treated with 100 nM ISO with vehicle or 100 nM AMs for 15 minutes. Post treatment, cells were washed and fixed with 10% formalin-buffered saline for 10 minutes on ice, washed twice, and further processed using horseradish peroxidase-conjugated chicken polyclonal anti-HA antibody (Abcam). Cells were washed and incubated with 3,3′,5,5′-tetramethylbenzidine substrate and transferred to a 96-well plate containing sulfuric acid to stop the colorimetric reaction. FlexStation3 was used to measure absorbance at 450 nm. All values were normalized to basal value (no ISO/AMs) of wild-type receptor.

[2] = system: human ASM cells; test: collagen gel contraction assay with human ASM cells, histamine-induced contraction; format: cell-based; conditions: 10 μM histamine; for effect on ISO-mediated inhibition of histamine-induced contraction of human ASM cells: AMs 100 nM, 10 min pretreatment
Description: β-agonists are the drug of choice for management of acute bronchoconstriction in asthmatics, acting on the target ASM cells. The Gs-cAMP-protein kinase A signaling axis effected by β-agonists inhibits contraction of ASM cells via multiple mechanisms. Therefore, it was examined whether the modulation of this signaling pathway by the discovered PAM/NAMs translated into functional differences in β2AR control of ASM contraction. In a standard gel-contraction assay, the collagen gels containing human ASM cells were incubated with different concentrations of ISO with vehicle or 100 nM AMs for 10 min, followed by stimulation with 10 μM histamine. The gel images were obtained before and after treatment with different agonists using an EVOS microscope, and a change in the gel area was calculated. Treatment with 10 μM histamine decreased the area of the gels, consistent with contraction of ASM cells. Pretreatment of gels with ISO inhibited the histamine-induced decrease in gel area (FIG. 14A).
100 μl of ASM cell suspension (5×10^5 cells/ml) containing type-I rat tail collagen (1.5 mg/ml) in F-12 medium was seeded onto a 96-well plate. After 24 h, collagen gels were loosened from the plate. The contraction was initiated by adding histamine (10 μM), with or without pretreatment with increasing concentration of ISO, with vehicle or AMs for 10 min prior to histamine. Images were obtained using an EVOS live tissue microscope before and at 10 min intervals for 40 min after the addition of histamine. Gel area was obtained for each of the mages using NIH ImageJ software. Data were expressed as percentage gel contraction and calculated using the following equation. [(T0 gel area−T10 gel area)/T0 gel area×100%].

[3] = system: human precision-cut lung slices; test: bronchodilation of methacholine-contracted human precision-cut lung slices; conditions: for effect on ISO-induced increase in airway lumen area (bronchodilation): 100 nM compound, methacholine 1 μM
Method: (§1) To further examine the effect of PAMs and NAMs on β-agonists-mediated regulation of bronchorelaxation in a physiologically-relevant model, human and murine precision-cut lung slices were used. […] Lung slices were treated with increasing concentrations of ISO plus either vehicle or 100 nM of compounds 1001, 1002, and 1003, and a change in airway lumen area was determined.
(§2) FVB mice expressing human β2AR in smooth muscle were used in this study. The protocol for animal experiments is approved by the Institutional Animal Care and Use Committee. Murine lungs were perfused with 4% low melting agarose, allowed to solidify at 4° C. for 1 h. For human airways, a small lobe was inflated with 2% low-melting-point agarose and cores of 8 mm in diameter were made. Both human and murine lungs were then sliced (˜250 μm thick) using an oscillating tissue slicer (OTS-5000, FHC Inc). Lung slices cultured for 48 h were treated with methacholine (MCh, 1 μM), and images of the airways were obtained before and 10 min after MCh stimulation using EVOS FL Auto (Life technologies, Waltham, MA) microscope. The lung slices were treated with ISO (1 nM-10 μM) with vehicle or AMs and images of the airways were captured at 10 min intervals for a total of 50 min. Images of airways were used to calculate the area of airways using Image J software (NIH). Data from lung slice experiments were plotted as a percentage of methacholine-induced decrease in airway area compared to baseline area.

[4] = system: murine precision-cut lung slices; test: bronchodilation of methacholine-contracted murine precision-cut lung slices; set-up: species or system FVB mice expressing human β2AR in smooth muscle; conditions: for effect on ISO-induced increase in airway lumen area (bronchodilation): 100 nM compound, methacholine 1 μM
Method: as §1, §2

[5] = biological target: T1, human wild type β2AR (Homo sapiens, UniProt P07550); test: ISO-induced cAMP accumulation (ELISA) in HEK293 cells overexpressing human wild type β2AR; format: cell-based; conditions: AMs 100 nM, different concentrations of ISO
T1 construct: host or cells: HEK293
T1 sequence (P07550 whole entry): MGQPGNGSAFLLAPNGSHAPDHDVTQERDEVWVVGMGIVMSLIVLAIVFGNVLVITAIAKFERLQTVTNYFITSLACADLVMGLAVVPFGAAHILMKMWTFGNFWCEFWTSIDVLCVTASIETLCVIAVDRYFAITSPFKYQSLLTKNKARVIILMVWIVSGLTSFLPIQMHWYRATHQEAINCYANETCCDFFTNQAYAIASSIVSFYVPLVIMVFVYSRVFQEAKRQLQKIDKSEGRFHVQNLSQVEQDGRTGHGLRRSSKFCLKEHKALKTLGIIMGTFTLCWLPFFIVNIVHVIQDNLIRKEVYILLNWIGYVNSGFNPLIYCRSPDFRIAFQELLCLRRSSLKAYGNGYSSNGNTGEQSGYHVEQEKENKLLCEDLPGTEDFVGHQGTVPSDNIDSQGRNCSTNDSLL
Description: Activation of β2AR by orthosteric ligands leads to activation of Gαs subunit, which in turn activates AC to hydrolyze ATP to produce cAMP. To determine the biological activity of the AMs of the β2AR, HEK293 cells overexpressing human wild type β2AR were stimulated with different concentrations of test compounds and evaluated for cAMP production using a cAMP ELISA. […] These compounds were used in subsequent studies.
HEK293 cell lines were obtained from the American Type Culture Collection (ATCC) and maintained in Dulbecco's modified Eagle's medium (DMEM) as described previously.
The human β2AR cDNA containing 3-HA tag at N-terminus subcloned into a pcDNA3.1 was obtained from www.cdna.org. […] Mutations were confirmed by DNA sequencing. HEK293 cells were transfected with cDNA expressing (wild type or mutant; see below) human β2AR using Lipofectamine 3000 (Invitrogen, Waltham, MA) and used for studies within 36-48 h, or were maintained in media containing G418 at 500 μg/ml concentration.
(§3) Cells were grown to full confluency in 24-well plates, serum-starved for 24 h, and then incubated with 1 mM IBMX for 10 min. Cells were then incubated with ISO (1 nM to 10 μM) or β2AR modulators alone or concomitantly for 10 min and cAMP levels were measured by ELISA (Life Technologies, Waltham, MA) as described previously.

[6] = biological target: T2, β2AR (Homo sapiens, UniProt P07550); test: β-arrestin2 recruitment to the β2AR, BRET assay in HEK293 cells; format: cell-based; conditions: AMs 100 nM, increasing concentrations of ISO
T2 construct: expressed in transfected cells; host or cells: HEK293
T2 sequence (P07550 whole entry): as above
Method: In addition to the canonical Gs signaling, the “balanced” b-agonists induce β-arrestin recruitment to the β2AR resulting in β2AR desensitization and activation of non-canonical signaling such as ERK1/2 signaling. […] Furthermore, the effect of AMs on ISO-induced phosphorylation of ERK1/2 was tested.
β-agonist-induced recruitment of β-arrestin to the β2AR was assessed by BRET assay as described previously. HEK293 cells were transfected with pcDNA-β-arrestin2-GFP10 and pcDNA3-β2AR-RlucII and after 48 h the cells were treated with increasing concentration of ISO and vehicle or 100 nM PAMs or NAMs followed by the addition of Coelenterazine 400a for 20 mins. Change in BRET was measured using a Tecan Infinite F500 microplate reader. BRET ratios were calculated by dividing the intensity of light emitted by the GFP10 acceptor by the total light emitted by the RLucII donor.

[7] = system: R131K, R131A, Y219F, Y219S, Y219A, F282Y, F282W, and F282A mutant β2ARs; test: ISO-induced cAMP generation in HEK293 cells expressing mutant β2AR; format: cell-based, human; conditions: AMs 100 nM, compared with wild-type β2AR
Method: To validate the identity of the computationally identified allosteric site, β2AR containing R131K, R131A, Y219F, Y219S, Y219A, F282Y, F282W, and F282A mutations was generated (FIG. 11A). Wild-type and mutant β2AR were expressed in HEK293 cells, and ISO-induced cAMP generation was measured in the presence or absence of the PAM compound 1001, or NAM compounds 1002 and 1003 (FIGS. 11B-E). The compounds were also tested at different concentrations of ISO in the cells expressing mutant β2AR (FIGS. 12A-D). The cAMP response was enhanced in cells expressing R131A and diminished in F282A mutant β2AR compared to cells expressing wild-type β2AR. […] Further, as expected, compound 1001 enhanced ISO-induced cAMP generation in cells expressing wild-type β2AR, and this effect was abolished in cells expressing mutant β2AR (FIGS. 11C-E, FIGS. 12B-D). Furthermore, NAM compounds 1002 and 1003 inhibited ISO-induced cAMP generation in wild-type β2AR expressing cells, and this inhibition was attenuated in cells expressing R131K, R131A, Y219F, Y219S, Y219A, F282Y, F282W, and F282A mutant β2ARs (FIGS. 11C-E, FIGS. 12B-D).
The human β2AR cDNA containing 3-HA tag at N-terminus subcloned into a pcDNA3.1 was obtained from www.cdna.org. Binding site residues PHE(F)282, TYR(Y)219, and ARG(R)131 were mutated to different amino acids using the QuikChange 11 XL Site-Directed Mutagenesis Kit (Agilent, Santa Clara, CA) per manufacturer's protocol. Mutations were confirmed by DNA sequencing. HEK293 cells were transfected with cDNA expressing (wild type or mutant; see below) human β2AR using Lipofectamine 3000 (Invitrogen, Waltham, MA) and used for studies within 36-48 h, or were maintained in media containing G418 at 500 μg/ml concentration. […]
as §3

[8] = system: mice; test: in vivo bronchodilation after MCh-induced bronchoconstriction by flexiVent; conditions: aerosol ISO with compound vs vehicle after MCh
Method: Compound 1001 augments isoproterenol (ISO)-induced bronchodilation in mice. Change in methacholine (MCh)-induced bronchoconstriction (lung resistance) upon aerosol treatment of mice with MCh followed by aerosol treatment of mice with ISO with vehicle or compound 1001 using flexiVent (Scireq) method was assessed.
In vivo lung function measurements. Lung mechanics are studied using flexiVent (Scireq) method. Briefly, anesthetized, intubated mice are ventilated with a tidal volume of 250 μl at 150 breaths/min. Mouse airways are exposed to increasing doses of methacholine (MCh; 1.56-50 mg/ml) using an in-line ultrasonic nebulizer. Following MCh-induced bronchoconstriction, mice are aerosolized with increasing concentrations of β-agonists (0.1-20 mg/ml)+AMs (100 nM). Airway resistance (Rn), tissue damping (G), and elastance (H) data (normalized to body weight) at individual doses of agonists are determined using the flexiWare software.

| effect on ISO-induced β-arrestin2 recruitment to the β2AR (change in BRET) [6] | SMILES | cell surface expression of the β2AR ([1]; ISO 100 nM alone) | histamine-induced decrease in gel area ([2]; ISO pretreatment alone) | airway lumen area (bronchodilation) ([3]; ISO alone) | airway lumen area (bronchodilation) ([4]; ISO alone) | effect on ISO-induced cAMP accumulation [5] | effect of the modulator on ISO-induced cAMP generation in cells expressing mutant β2AR [7] | effect on ISO-induced loss of cell surface expression of wild-type or mutant β2AR [1] | effect on ISO-mediated inhibition of histamine-induced contraction of human ASM cells [2] | effect on ISO-induced increase in airway lumen area (bronchodilation) [3] | effect on ISO-induced increase in airway lumen area (bronchodilation) [4] | effect on ISO-induced bronchodilation (lung resistance) [8] |
| --- | --- | --- | --- | --- | --- | --- | --- | --- | --- | --- | --- | --- |
| – | CC(C)NCC(O)c1ccc(O)c(O)c1 (centres unmarked) [ISO, isoproterenol, reference compound] | loss of cell surface expression | inhibited | dose-dependent increase | dose-dependent increase | – | – | – | – | – | – | – |
| did not alter | OCCC1CN(Cc2ccccn2)CCN1C1CCCC1 (centres unmarked) [compound 1001] | – | – | – | – | most effective PAM; also recorded: enhanced | abolished | did not affect | significantly enhanced | significantly enhanced | significantly enhanced | augments |
| did not alter | Cc1nc2ccccc2nc1CN1CCN(C2CCCCC2)C(CCO)C1 (centres unmarked) [compound 1002] | – | – | – | – | most effective NAMs; also recorded: inhibited | attenuated | did not affect | either slightly reduced or had no effect | mitigated | mitigated | – |
| did not alter | Cc1cnn(-c2cc(N/N=C/c3ccccc3O)ncn2)c1 [compound 1003] | – | – | – | – | most effective NAMs; also recorded: inhibited | attenuated | did not affect | either slightly reduced or had no effect | mitigated | mitigated | – |
